Data on 29 compounds can be found in patent US7326734B2, “Treatment of bladder and urinary tract cancers” (The Regents of the University of California, priority 2003, dated 2008).

For one data set, the system named is T24 bladder cancer cells. Briefly: antiproliferative activity against T24 (Grade 3, non-metastatic) bladder cancer cells in vitro. In kind it is cell-based. The note with it: for inhibition at 100 µM / Percentage of inhibition related to control (%) / inhibition at 50 µg/mL / inhibition at 25 µg/mL: bladder cancer cells in vitro; for inhibition at 100 µM / inhibition at 50 µg/mL / inhibition at 25 µg/mL: read-out: Percentage of inhibition related to control (%). How it is done:
(§1) Compounds of the present invention were tested for antiproliferative activity against RT24 (Grade I) and T24 (Grade3, non-metastatic) bladder cancer cells in vitro, in accordance with well known standard technique as diagramed in FIG. 5.

For data set [1], the system named is RT24 (Grade I) bladder cancer cells. The experiment in a line: antiproliferative activity against RT24 (Grade I) bladder cancer cells in vitro. In kind it is cell-based. The note with it: FIGS. 1-4. How it is done:
FIG. 5 is a schematic diagram of the in vitro test for antiproliferative activity referred to in Example 1 below.
as §1

Data set [2] relates to advanced transitional cell carcinoma of the urothelium. The conditions noted are these: Phase II, with prophylactic G-CSF, cited from earlier work.
The test system of data set [3] is human bladder cancer cell lines. The conditions noted are these: cited from earlier work.
In another data set the test system is bladder cancer. The note with it: cited from earlier work.

The term inhibition denotes how much of the control response was suppressed. Regarding `O=c1oc2c(O)c(O)cc3c(=O)oc4c(O)c(O)cc1c4c23` [Ellagic acid], in the data set on T24 bladder cancer cells, the inhibition at 100 µM came to 66%. On to `O=c1c2ccccc2nc2n1CCc1c-2[nH]c2ccccc12` [Rutaecurpine], for which the “Percentage of inhibition related to control (%)” value in the data set with T24 bladder cancer cells (50 μg/ml) is on record as 76%. Take `O=c1c(O)c(-c2ccc(O)cc2)oc2cc(O)cc(O)c12` [Kaempferol]: the inhibition at 50 µg/mL in the data set with T24 bladder cancer cells (50 μg/ml) was 60%. As for `O=c1c(-c2ccc(O)cc2)coc2cc(O)ccc12` [Daidzein], the inhibition at 50 µg/mL in the data set on T24 bladder cancer cells (50 μg/ml) was 39.3%. Same read-out and setting: the figure for `CC(=O)OC[C@@]1(O)C[C@@]23CC[C@@H]4c5ccoc5CC[C@@]4(C)[C@@H]2CC[C@@H]1C3` [Cafestol Acetate] is 57.6%. With `O=C(O[C@@H]1Cc2c(O)cc(O)cc2O[C@@H]1c1cc(O)c(O)c(O)c1)c1cc(O)c(O)c(O)c1` [EGCG], the “Percentage of inhibition related to control (%)” value in the data set with T24 bladder cancer cells (25 μg/ml) was 34%. Regarding `COc1ccc(/C=C/C(=O)c2c(O)cc(OC)cc2OC)cc1` [Flavokawain A, 2′-hydroxy-4,4′,6′-trimethoxychalcone], the “inhibitory effects on proliferation” value was “significant inhibitory effects” in the data set with T24 bladder cancer cells (T24 (Grade 3, non-metastatic) cells in vitro, FIGS. 1-4) and “significant inhibitory effects” in data set [1].

On to `COc1cc(O)cc(O)c1C(=O)CC(O)c1ccccc1` (stereo not shown) [1-(2,4-Dihydorxy-6-methoxy-phenyl-3-hydorxy-3-phenyl-propan-1-one], for which, in the data set on T24 bladder cancer cells (25 μg/ml), the “Percentage of inhibition related to control (%)” value was 42.3%. For the compound `COc1cc(C2Oc3cc([C@H]4Oc5cc(O)cc(O)c5C(=O)[C@@H]4O)ccc3OC2CO)ccc1O` (stereo partly shown) [Silibinin], in the data set on T24 bladder cancer cells, the inhibition at 100 µM came out at 40%.

As for `COc1cc(/C=C/c2ccc(OC)c(OC)c2)oc(=O)c1` [11-Methoxyangonin], the “Percentage of inhibition related to control (%)” value in the data set on T24 bladder cancer cells (25 μg/ml) amounted to 26.3%.

In the case of `O=C1c2c(O)cc(O)cc2O[C@H](c2ccc(O)c(O)c2)[C@H]1O` [Taxifolin], the inhibition at 50 µg/mL in the data set with T24 bladder cancer cells (50 μg/ml) amounted to 36.7%. Consider `CC(=O)O[C@H]1C(=O)[C@@]2(C)[C@H]([C@H](OC(=O)c3ccccc3)[C@]3(O)C[C@H](OC(=O)[C@H](O)[C@@H](NC(=O)c4ccccc4)c4ccccc4)C(C)=C1C3(C)C)[C@]1(OC(C)=O)CO[C@@H]1C[C@@H]2O` [paclitaxel], for which the “objective response (response rate)” value in data set [2] (previously untreated patients) is 42%. In addition, in data set [2], the toxicities entry is “granulocytopenia, anemia, mucositis, and neuropathy”. Further, the “activity against human bladder cancer cell lines” value in data set [3] is “significant activity”. Consider `O=C1C[C@@H](c2ccc(O)cc2)Oc2cc(O)cc(O)c21` [Naringenin], for which the inhibition at 50 µg/mL in the data set on T24 bladder cancer cells (50 μg/ml) amounted to 20%. Consider `COc1cc(/C=C/C(=O)CC(=O)/C=C/c2ccc(O)c(OC)c2)ccc1O` [Curcumin], for which, in the data set on T24 bladder cancer cells (50 μg/ml), the inhibition at 50 µg/mL stood at 69.7%. Still for that read-out and setting: the figure for `O=c1c(O)c(-c2ccc(O)c(O)c2)oc2cc(O)cc(O)c12` [Quercetin] is 53.3%. Regarding `COc1ccc(-c2coc3cc(O)cc(O)c3c2=O)cc1` [Biochanin A], in the data set on T24 bladder cancer cells (25 μg/ml), the “Percentage of inhibition related to control (%)” value was 48.7%.

Regarding `O=c1c(O)c(-c2ccc(O)cc2O)oc2cc(O)cc(O)c12` [Morin], the inhibition at 50 µg/mL with T24 bladder cancer cells (50 μg/ml) came out at 34%.

For the compound `COc1ccc(/C=C/C(=O)c2c(OC)cc(O)cc2OC)cc1` [4′-hydroxy-4,2′,6′-trimethoxychalcone], the inhibition at 25 µg/mL in the data set with T24 bladder cancer cells (25 μg/ml) is 73.7%. In the case of `COc1ccc2cc3[n+](cc2c1OC)CCc1cc2c(cc1-3)OCO2` [Berberine], in the data set with T24 bladder cancer cells (50 μg/ml), the inhibition at 50 µg/mL was determined as 17.9%. For `C[C@@H]1O[C@@H](O[C@H]2[C@H](Oc3cc(O)c4c(c3)O[C@H](c3ccc(O)cc3)CC4=O)O[C@H](CO)[C@@H](O)[C@@H]2O)[C@H](O)[C@H](O)[C@H]1O` [Naringin], the inhibition at 50 µg/mL in the data set on T24 bladder cancer cells (50 μg/ml) is 29%. For `Nc1ccn([C@@H]2O[C@H](CO)[C@@H](O)C2(F)F)c(=O)n1` [Gemcitabine], in the data set with bladder cancer (clinical trials), the median survival entry was “less than 12 months” and the response rate entry is listed as “less than 30%”. The toxicity result in the data set with bladder cancer (phase II trials) was “in general mild and reversible”.

Consider `Oc1cc(O)c2c(c1)O[C@H](c1ccc(O)c(O)c1)[C@H](O)[C@H]2c1c(O)cc(O)c2c1O[C@H](c1ccc(O)c(O)c1)[C@@H](O)C2` [Procyanidin B1], for which, in the data set with T24 bladder cancer cells (25 μg/ml), the “Percentage of inhibition related to control (%)” value came to 44.2%. As to `C[C@@]12C=Cc3occc3[C@H]1CC[C@@]13C[C@@H](CC[C@H]12)[C@@](O)(CO)C3` [Kahweol], the “Percentage of inhibition related to control (%)” value in the data set with T24 bladder cancer cells (50 μg/ml) stood at 61.2%. Consider 11-Methysticin, for which the “Percentage of inhibition related to control (%)” value in the data set on T24 bladder cancer cells (25 μg/ml) was found to be 52.1%. Regarding `O=c1c(-c2ccc(O)cc2)coc2cc(O)cc(O)c12` [Genistein], the inhibition at 25 µg/mL in the data set with T24 bladder cancer cells (25 μg/ml) was determined as 48.7%. On to `COC1=CC(=O)O[C@@H](/C=C/c2ccccc2)C1` [Kawain], for which, in the data set on T24 bladder cancer cells (25 μg/ml), the inhibition at 25 µg/mL was determined as 33.6%.

Take `Oc1ccc(C=Cc2cc(O)cc(O)c2)cc1` [Resveratrol]: the inhibition at 50 µg/mL in the data set with T24 bladder cancer cells (50 μg/ml) was determined as 70.6%. The same measure, in the same setting: the figure for `O=c1oc2cc(O)ccc2c2oc3cc(O)ccc3c12` [Coumestrol] is 30%. Regarding `C[C@@H]1O[C@@H](OC[C@H]2O[C@@H](Oc3c(-c4ccc(O)c(O)c4)oc4cc(O)cc(O)c4c3=O)[C@H](O)[C@@H](O)[C@@H]2O)[C@H](O)[C@H](O)[C@H]1O` [Rutin], in the data set with T24 bladder cancer cells, the inhibition at 100 µM amounted to 47.7%.
